Key:
[1] = Evaluation of solubility in water; format: physicochemical; conditions: thermodynamic from solid; Na salt: monosodium salt of 10 and 21, disodium salt (20) of 11; water added dropwise by 10 µl; corrected for mg in 1 ml at 23°C
Description: A solution of 10.3 mg (24.3 µmol) of compound (11) in 4.85 ml (48.6 µmol) of a 0.01 M methanolic solution of sodium methylate was filtered through a Millipore filter and then concentrated. The resulting residue was dried under reduced pressure to obtain disodium salt (20).

human sPLA2 = biological target: T1, human sPLA2 (Homo sapiens, UniProt P14555); test: In vitro test for sPLA2-inhibitory action by PC/DOC method; format: biochemical; conditions: PC/DOC = 1 mM/3 mM; Tris buffer 50 mM, pH 8.0; 40°C for 30 minutes; oleic acid measured by HPLC
T1 sequence (P14555 21-144): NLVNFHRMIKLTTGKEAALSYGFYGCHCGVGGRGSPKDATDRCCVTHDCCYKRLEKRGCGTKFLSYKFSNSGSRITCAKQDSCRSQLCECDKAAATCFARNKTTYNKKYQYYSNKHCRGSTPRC
Description: A 50 mM solution of 1-palmitoyl-1-oleoyl-sn-glycero-3-phosphatidylcholine in chloroform (PC) was used as a substrate. A 150 mM solution of sodium deoxycholate in methanol (DOC) was used as a surface-active agent
First, the substrate and the surface-active agent were transferred into an Eppendorf tube and the solvent was evaporated by applying a nitrogen stream. Then, the tube was placed in a desiccator and evacuated with a pump to complete dryness. Thereto was added water in an amount to be used for the assay and the solution was stirred for 1 minute. The final concentrations were adjusted so as to make PC/DOC = 1 mM/3 mM.
As the buffer solution for measurement was prepared a Tris buffer solution (50 mM, pH 8.0) containing 150 mM sodium chloride, calcium chloride (10 mM), and bovine serum albumin (1 mg/ml).
To a test compound solution were added the substrate solution and the buffer solution for measurement prepared as described above and the resulting mixture was stirred to mix. […] HPLC analysis was carried out under the following analysis conditions: Column: Supersphere ^R60 RP-8 (Merck & Co.) Mobile: Phase: Acetonitrile : Distilled water (93:7) Detection: Absorbance at 254 nm
The inhibitory activity of the compound was calculated from the amount of oleic acid thus-measured.

SMILES	solubility [1]	IC50 (human sPLA2)
CCc1c(C(=O)C(N)=O)c2c(OCC(=O)O)cccc2n1Cc1ccccc1 [Compound 21, reference compound]	1.4 mg/mL	
CCc1c(C(=O)C(N)=O)c2c(OCC(=O)O)cc(C(=O)OC)cc2n1Cc1ccccc1 [compound 10]	68 mg/mL	0.0017 µM
CCc1c(C(=O)C(N)=O)c2c(OCC(=O)O)cc(C(=O)O)cc2n1Cc1ccccc1 [Compound 11, 1-Benzyl-6-carboxy-4-carboxymethyloxy-2-ethyl-3-oxamoyl-1H-indole]	228 mg/mL	0.0438 µM
